Results published in patent US11944605B2, “Rapamycin analogs and uses thereof” (Janssen Pharmaceutica NV, priority 2018, dated 2024).
Values after ≈ are worked out from the molar mass of the structure shown.

Experiments:
[1] = tested on: pAKT (p-Akt 1/2/3 (Ser473)) in MCF-7 cells; test: AlphaLISA Ultra pAKT Assay; type: cell-based; details: Homo sapiens, 1.5 h; MCF7 cells, 90 min
Method: AlphaLISA Ultra pAKT Assay
1. MCF-7 cells in Corning 3701 plate and incubate for 20˜24 hour.
16,000˜20,000 cells will be seeded in 36 μL medium per well.
2. Change the culture medium with fresh medium and incubate for another 90 minutes.
3. […]
4. Aspirate […] by HAMILTON, 10 μL rest per well.
5. Add 10 μL 2× lysis buffer using HAMILTON; total volume in wells is 20 μL. Allow cells to shake for 30 min. Cover plate by plastic foil and store plate at −80° C. up to analysis.
6. Thaw cell lysate at RT and transfer 10 ul lysate to assay plate (Optiplate-384).
7. Add 5 μL acceptor beads into assay plate and incubation for 2 hours
8. Add 5 μL donor beads and incubation for 2 hours
9. Count the plate by EnSpire Multimode Plate Reader

[2] = tested on: pS6K1 (p-p70 S6 Kinase (Thr389)) in MCF-7 cells; test: AlphaLISA Ultra pS6K1 Assay; type: cell-based; details: Homo sapiens, 1.5 h; MCF7 cells, 90 min
Summary of the method: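 AlphaLISA Ultra read-out (acceptor beads 2 h, then donor beads 2 h) on thawed lysates of MCF-7 cells. Cells had 20–24 h after seeding and a 2 h medium change, then 90 min of compound exposure at 0.5% final DMSO, with lysates stored at −80 °C.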

[3] = Solubility in 100 mM phosphate buffer (pH 7.4); type: physicochemical; details: pH 7.4, aqueous buffer
Text: The compound numbers correspond to the compound numbers in Table 1.

[4] = tested on: mTORC1 over mTORC2; test: mTORC1 selectivity over mTORC2 at 24 hrs (Western blot based pS6K1 and pAKT assay); type: cell-based

| Compound | IC50 [1] [nM] | IC50 [2] [nM] | solubility [3] [µM] | mTORC1 selective @ 24 hrs [4] | selectivity for mTORC1 over mTORC2 as measured by the impact on pAKT ([4]; extended periods of time (e.g., 24 hours)) |
| --- | --- | --- | --- | --- | --- |
| CO[C@@H]1C[C@H](C[C@@H](C)[C@@H]2CC(=O)[C@H](C)/C=C(\C)[C@@H](O)[C@@H](OC)C(=O)[C@H](C)C[C@H](C)/C=C/C=C/C=C(\C)C(OCC3COCCOCCOCCOCCO3)C[C@@H]3CC[C@@H](C)[C@@](O)(O3)C(=O)C(=O)N3CCCC[C@H]3C(=O)O2)CC[C@H]1O (some centres unmarked) [I-3] | ≥ 100 | 0.1 to 1 | 30 to 60 (≈ 34 to 67.9 µg/mL) | YES | – |
| CO[C@@H]1C[C@H](C[C@@H](C)[C@@H]2CC(=O)[C@H](C)/C=C(\C)[C@@H](O)[C@@H](OC)C(=O)[C@H](C)C[C@H](C)/C=C/C=C/C=C(\C)C(OCC3COCCOCCOCCO3)C[C@@H]3CC[C@@H](C)[C@@](O)(O3)C(=O)C(=O)N3CCCC[C@H]3C(=O)O2)CC[C@H]1O (some centres unmarked) [I-10] | ≥ 100 | < 0.1 | – | YES | – |
| COCCOCCOC1C[C@@H]2CCC(C)C(O)(O2)C(=O)C(=O)N2CCCC[C@H]2C(=O)OC(C(C)CC2CCC(O)C(OC)C2)CC(=O)C(C)/C=C(\C)C(O)C(OC)C(=O)C(C)CC(C)/C=C/C=C/C=C/1C (some centres unmarked) [I-17] | ≥ 100 | 0.1 to 1 | 30 to 60 (≈ 30.1 to 60.1 µg/mL) | YES | – |
| CO[C@@H]1C[C@H](C[C@@H](C)[C@@H]2CC(=O)[C@H](C)/C=C(\C)[C@@H](O)[C@@H](OC)C(=O)[C@H](C)C[C@H](C)/C=C/C=C/C=C(\C)[C@H](OCCOCCO)C[C@@H]3CC[C@@H](C)[C@@](O)(O3)C(=O)C(=O)N3CCCC[C@H]3C(=O)O2)CC[C@H]1O [I-19] | ≥ 100 | < 0.1 | 30 to 60 (≈ 29.6 to 59.3 µg/mL) | YES | marked selectivity |
| CO[C@@H]1C[C@H](C[C@@H](C)[C@@H]2CC(=O)[C@H](C)/C=C(\C)[C@@H](O)[C@@H](OC)C(=O)[C@H](C)C[C@H](C)/C=C/C=C/C=C(\C)C(OCCOCCOCCOCCO)C[C@@H]3CC[C@@H](C)[C@@](O)(O3)C(=O)C(=O)N3CCCC[C@H]3C(=O)O2)CC[C@H]1OCCO (stereo partly drawn) [I-22, (21E,23E,25E,26E,38R,39S,40R,41R,42S,45S,47S,49R,50R,59R)-49, 59-dihydroxy-46-[2-[2-[2-(2-hydroxyethoxy)ethoxy]ethoxy]ethoxy]-47-[(1R)-2-[(1S,2R, 3R)-3-(2-hydroxyethoxy)-2-methoxy-cyclohexyl]-1-methyl-ethyl]-50-methoxy-38,39,40,41,51,52-hexamethyl-70, 71-dioxa-60-azatricyclohexatriaconta-21,23,25(51),26(52)-tetraene-53, 54,55,56,57-pentone] | ≥ 100 | 0.1 to 1 | – | YES | – |
| CO[C@@H]1C[C@H](C[C@@H](C)[C@@H]2CC(=O)[C@H](C)/C=C(\C)[C@@H](O)[C@@H](OC)C(=O)[C@H](C)C[C@H](C)/C=C/C=C/C=C(\C)C(OCCOCCO)C[C@@H]3CC[C@@H](C)[C@@](O)(O3)C(=O)C(=O)N3CCCC[C@H]3C(=O)O2)CC[C@H]1OCCO (stereo partly drawn) [I-23, (21E,23E,25E,26E,34R,35S,36R,37R,38S,41S,43S,45R,46R,55R)-45,55-dihydroxy-42-[2-(2-hydroxyethoxy)ethoxy]-43-[(1R)-2-[(1S,2R,3R)-3-(2-hydroxyethoxy)-2-methoxy-cyclohexyl]-1-methyl-ethyl]-46-methoxy-34, 35,36,37,47,48-hexamethyl-66,67-dioxa-56-azatricyclohexatriaconta-21, 23,25(47),26(48)-tetraene-49,50,51,52,53-pentone] | ≥ 100 | < 0.1 | – | YES | – |
| COCCOCCOCCOC1C[C@@H]2CC[C@@H](C)[C@@](O)(O2)C(=O)C(=O)N2CCCC[C@H]2C(=O)O[C@H]([C@H](C)C[C@@H]2CC[C@@H](O)[C@H](OC)C2)CC(=O)[C@H](C)/C=C(\C)[C@@H](O)[C@@H](OC)C(=O)[C@H](C)C[C@H](C)/C=C/C=C/C=C/1C (stereo partly drawn) [I-27, (22E,24E,26E,27E,35R,36S,37R,38R,39S,42S,44S,46R,47R,56R)-46,56-dihydroxy-44-[(1R)-2-[(1S, 2R,3R)-3-hydroxy-2-methoxy-cyclohexyl]-1-methyl-ethyl]-47-methoxy-43-[2-[2-(2-methoxyethoxy)ethoxy]ethoxy]-35,36,37,38,48,49-hexamethyl-66,67-dioxa-57-azatricyclohexatriaconta-22, 24,26(48),27(49)-tetraene-50,51,52,53,54-pentone] | ≥ 100 | 0.1 to 1 | 30 to 60 (≈ 31.4 to 62.8 µg/mL) | YES | – |
| CO[C@@H]1C[C@H](C[C@@H](C)[C@@H]2CC(=O)[C@H](C)/C=C(\C)[C@@H](O)[C@@H](OC)C(=O)[C@H](C)C[C@H](C)/C=C/C=C/C=C(\C)C(OCCOCCOCCO)C[C@@H]3CC[C@@H](C)[C@@](O)(O3)C(=O)C(=O)N3CCCC[C@H]3C(=O)O2)CC[C@H]1OCCO (stereo partly drawn) [I-32, (21E,23E,25E,26E,36R,37S,38R,39R,40S,43S,45S,47R,48R,57R)-47, 57-dihydroxy-44-[2-[2-(2-hydroxyethoxy)ethoxy]ethoxy]-45-[(1R)-2-[(1S,2R, 3R)-3-(2-hydroxyethoxy)-2-methoxy-cyclohexyl]-1-methyl-ethyl]-48-methoxy-36,37,38,39,49,50-hexamethyl-68, 69-dioxa-58-azatricyclohexatriaconta-21,23,25(49),26(50)-tetraene-51,52,53,54,55-pentone] | ≥ 100 | 0.1 to 1 | > 60 | YES | – |

Now from value to compound, other results behind:

| IC50 [1] [nM] | IC50 [2] [nM] | solubility [3] [µM] | Compound | mTORC1 selective @ 24 hrs [4] | selectivity for mTORC1 over mTORC2 as measured by the impact on pAKT ([4]; extended periods of time (e.g., 24 hours)) |
| --- | --- | --- | --- | --- | --- |
| ≥ 100 | < 0.1 | 30 to 60 (≈ 31 to 61.9 µg/mL) | CO[C@@H]1C[C@H](C[C@@H](C)[C@@H]2CC(=O)[C@H](C)/C=C(\C)[C@@H](O)[C@@H](OC)C(=O)[C@H](C)C[C@H](C)/C=C/C=C/C=C(\C)[C@@H](OCCOCCOCCO)C[C@@H]3CC[C@@H](C)[C@@](O)(O3)C(=O)C(=O)N3CCCC[C@H]3C(=O)O2)CC[C@H]1O [Compound I-29] | – | – |
| ≥ 100 | 0.1 to 1 | > 60 | CO[C@@H]1C[C@H](C[C@@H](C)[C@@H]2CC(=O)[C@H](C)/C=C(\C)[C@@H](O)[C@@H](OC)C(=O)[C@H](C)C[C@H](C)/C=C/C=C/C=C(\C)[C@H](OCCOCCOCCO)C[C@@H]3CC[C@@H](C)[C@@](O)(O3)C(=O)C(=O)N3CCCC[C@H]3C(=O)O2)CC[C@H]1O [Compound I-30] | – | – |
| ≥ 100 | 0.1 to 1 | 30 to 60 (≈ 35.3 to 70.6 µg/mL) | CO[C@@H]1C[C@H](C[C@@H](C)[C@@H]2CC(=O)[C@H](C)/C=C(\C)[C@@H](O)[C@@H](OC)C(=O)[C@H](C)C[C@H](C)/C=C/C=C/C=C(\C)C(OCC3COCCOCCOCCOCCOCCO3)C[C@@H]3CC[C@@H](C)[C@@](O)(O3)C(=O)C(=O)N3CCCC[C@H]3C(=O)O2)CC[C@H]1O (some centres unmarked) [I-1] | YES | – |
| ≥ 100 | 0.1 to 1 | – | CO[C@@H]1C[C@H](C[C@@H](C)[C@@H]2CC(=O)[C@H](C)/C=C(\C)[C@@H](O)[C@@H](OC)C(=O)[C@H](C)C[C@H](C)/C=C/C=C/C=C(\C)C(OCC(O)CO)C[C@@H]3CC[C@@H](C)[C@@](O)(O3)C(=O)C(=O)N3CCCC[C@H]3C(=O)O2)CC[C@H]1O (stereo partly drawn) [I-25, (21E,23E,25E,26E,30R,31S,32R,33R,35R,37S,39S,40S,41R,42R,52S)-39-(2,3-dihydroxypropoxy)-41, 52-dihydroxy-40-[(1S)-2-[(1S,3R,4R)-4-hydroxy-3-methoxy-cyclohexyl]-1-methyl-ethyl]-42-methoxy-30, 31,32,33,43,44-hexamethyl-64,65-dioxa-53-azatricyclohexatriaconta-21, 23,25(43),26(44)-tetraene-45,46,47,48,49-pentone] | YES | – |
| ≥ 100 | 0.1 to 1 | > 60 | CO[C@@H]1C[C@H](C[C@@H](C)[C@@H]2CC(=O)[C@H](C)/C=C(\C)[C@@H](O)[C@@H](OC)C(=O)[C@H](C)C[C@H](C)/C=C/C=C/C=C(\C)C(OCC(CO)CO)C[C@@H]3CC[C@@H](C)[C@@](O)(O3)C(=O)C(=O)N3CCCC[C@H]3C(=O)O2)CC[C@H]1O (stereo partly drawn) [I-31, (21E,23E,25E,26E,31R,32S,33R,34R,36R,38S,41S,42R,43R,53S)-42, 53-dihydroxy-40-[3-hydroxy-2-(hydroxymethyl)propoxy]-41-[(1S)-2-[(1S,3R, 4R)-4-hydroxy-3-methoxy-cyclohexyl]-1-methyl-ethyl]-43-methoxy-31,32,33,34,44,45-hexamethyl-65, 66-dioxa-54-azatricyclohexatriaconta-21,23,25(44),26(45)-tetraene-46,47,48,49,50-pentone] | YES | – |
